Laboratory results as given in patent US20200308170A1, “KRAS G12C INHIBITORS” (Mirati Therapeutics, Inc., priority 2017, published 2020).

These compounds were tested against T1, KRas G12C (Homo sapiens, UniProt P01116, C118S/C51S/C80L/G12C) (assay: KRas G12C Modification Assay (LCMS detection of covalent adduct)). Conditions: 5 μM concentration for 3 hours; LC/MS of intact protein; higher POC = higher degree of modification.
T1 construct: GDP-loaded K-Ras (1-169) G12C, C51S, C80L, C118S
Assay type: binding
Description: A 10 μL aliquot of each protein solution was then transferred to a 384 well microtiter plate. Initial compound stocks were generated at fifty times their desired final assay concentration in DMSO.
Exemplary compounds of Formula (II) were diluted 25-fold into K-Ras Assay Buffer to a final of two times their final concentration. A 10 μL aliquot of each diluted compound solution was then added to each of the protein solutions in the microtiter plate to initiate reaction. […] At each time point, the reactions were quenched with 20 μL of a 25 mM acetic acid solution. […] Once all reactions were quenched, the plates were heat sealed and the samples were injected into a LC/MS system for data acquisition.
Samples were injected in their liquid phase onto a C-3 reverse phase column to remove assay buffer and prepare the samples for mass spectrometer. The proteins were eluted from the column using an acetonitrile gradient and fed directly into the mass analyzer. Initial raw data analysis took place in Agilent MassHunter software immediately post data acquisition.
Raw data analysis of the intact protein was exclusively a deconvolution of the multiple charge states of each protein in solution using a maximum entropy deconvolution provided in Mass Hunter. To minimize complexity, only the data over limited mass ranges were considered for analysis, with a minimum of one Dalton mass step intervals. The heights of all masses identified during raw data analysis were exported to be further analyzed in Spotfire® data analysis software.
Final data analysis was a multistep process in the Spotfire® data analysis software package. Briefly, each protein mass was calculated as a percent of the total signal of that sample, that percentage was then normalized to the percentage of signal of the protein in the absence of reactive compounds. Those normalized signals were reported as normalized percent of control (POC). […] Key: “A”≤25% POC; “B”>25% POC−≤50% POC; “C”>50% POC and ND=not determined.

| Compound | POC (normalized percent of control; degree of covalent modification of KRas G12C) |
| --- | --- |
| C=C(F)C(=O)N1CCN(c2nc(OC[C@@H]3CCCN3C)nc3c2CCN(c2cccc(C)c2C)C3)C[C@@H]1CC#N [Example 1, 2-[(2S)-4-[7-(2,3-dimethylphenyl)-2-[[(2S)-1-methylpyrrolidin-2-yl]methoxy]-6,8-dihydro-5H-pyrido[3,4-d]pyrimidin-4-yl]-1-(2-fluoroprop-2-enoyl)piperazin-2-yl]acetonitrile] | C (“C”>50% POC) |
| C=C(Cl)C(=O)N1CCN(c2nc(OC[C@@H]3CCCN3C)nc3c2CCN(c2cccc(C)c2C)C3)C[C@@H]1CC#N [Example 2, 2-[(2S)-1-(2-chloroprop-2-enoyl)-4-[7-(2,3-dimethylphenyl)-2-[[(2S)-1-methylpyrrolidin-2-yl]methoxy]-6,8-dihydro-5H-pyrido[3,4-d]pyrimidin-4-yl]piperazin-2-yl]acetonitrile] | C (“C”>50% POC) |
| CN1CCC[C@H]1COc1nc2c(c(N3CCN(C(=O)C#CCO)[C@@H](CC#N)C3)n1)CCN(c1cccc3ccccc13)C2 [Example 3, 2-((S)-1-(4-hydroxybut-2-ynoyl)-4-(2-(((S)-1-methylpyrrolidin-2-yl)methoxy)-7-(naphthalen-1-yl)-5,6,7,8-tetrahydropyrido[3,4-d]pyrimidin-4-yl)piperazin-2-yl)acetonitrile] | C (“C”>50% POC) |
| [2H]C([2H])=C([2H])C(=O)N1CCN(c2nc(OC[C@@H]3CCCN3C)nc3c2CCN(c2cccc4ccccc24)C3)C[C@@H]1CC#N [Example 4, 2-[(2S)-4-[2-[[(2S)-1-methylpyrrolidin-2-yl]methoxy]-7-(1-naphthyl)-6,8-dihydro-5H-pyrido[3,4-d]pyrimidin-4-yl]-1-(2,3,3-trideuterioprop-2-enoyl)piperazin-2-yl]acetonitrile] | C (“C”>50% POC) |
| Cc1cccc(N2CCc3c(nc(OC[C@@H]4CCCN4C)nc3N3CCN(C(=O)/C=C/CN4CCC(F)C4)[C@@H](CC#N)C3)C2)c1C (stereo partly drawn) [Example 5, 2-[(2S)-4-[7-(2,3-dimethylphenyl)-2-[[(2S)-1-methylpyrrolidin-2-yl]methoxy]-6,8-dihydro-5H-pyrido[3,4-d]pyrimidin-4-yl]-1-[(E)-4-(3-fluoropyrrolidin-1-yl)but-2-enoyl]piperazin-2-yl]acetonitrile] | C (“C”>50% POC) |
| CN1CCC[C@H]1COc1nc2c(c(N3CCN(C(=O)/C=C/CF)[C@@H](CC#N)C3)n1)CCN(c1cccc3cccc(Cl)c13)C2 [Example 8, 2-[(2S)-4-[7-(8-chloro-1-naphthyl)-2-[[(2S)-1-methylpyrrolidin-2-yl]methoxy]-6,8-dihydro-5H-pyrido[3,4-d]pyrimidin-4-yl]-1-[(E)-4-fluorobut-2-enoyl]piperazin-2-yl]acetonitrile] | C (“C”>50% POC) |
| CN1CCC[C@H]1COc1nc2c(c(N3CCN(C(=O)/C=C/CN4CCC(F)C4)[C@@H](CC#N)C3)n1)CCN(c1cccc3cccc(Cl)c13)C2 (stereo partly drawn) [Example 9, 2-[(2S)-4-[7-(8-chloro-1-naphthyl)-2-[[(2S)-1-methylpyrrolidin-2-yl]methoxy]-6,8-dihydro-5H-pyrido[3,4-d]pyrimidin-4-yl]-1-[(E)-4-(3-fluoropyrrolidin-1-yl)but-2-enoyl]piperazin-2-yl]acetonitrile] | C (“C”>50% POC) |
| CN1CCC[C@H]1COc1nc2c(c(N3CCN(C(=O)/C=C/CN4CC(F)C4)[C@@H](CC#N)C3)n1)CCN(c1cccc3cccc(Cl)c13)C2 [Example 10, 2-[(2S)-4-[7-(8-chloro-1-naphthyl)-2-[[(2S)-1-methylpyrrolidin-2-yl]methoxy]-6,8-dihydro-5H-pyrido[3,4-d]pyrimidin-4-yl]-1-[(E)-4-(3-fluoroazetidin-1-yl)but-2-enoyl]piperazin-2-yl]acetonitrile] | C (“C”>50% POC) |
| CN(C/C=C/C(=O)N1CCN(c2nc(OC[C@@H]3CCCN3C)nc3c2CCN(c2cccc4cccc(Cl)c24)C3)C[C@@H]1CC#N)CC(F)(F)F [Example 11, 2-[(2S)-4-[7-(8-chloro-1-naphthyl)-2-[[(2S)-1-methylpyrrolidin-2-yl]methoxy]-6,8-dihydro-5H-pyrido[3,4-d]pyrimidin-4-yl]-1-[(E)-4-[methyl(2,2,2-trifluoroethyl)amino]but-2-enoyl]piperazin-2-yl]acetonitrile] | C (“C”>50% POC) |
| CN1CCC[C@H]1COc1nc2c(c(N3CCN(C(=O)C#CCO)[C@@H](CC#N)C3)n1)CCN(c1cccc3cccc(Cl)c13)C2 [Example 12, 2-[(2S)-4-[7-(8-chloro-1-naphthyl)-2-[[(2S)-1-methylpyrrolidin-2-yl]methoxy]-6,8-dihydro-5H-pyrido[3,4-d]pyrimidin-4-yl]-1-(4-hydroxybut-2-ynoyl)piperazin-2-yl]acetonitrile] | C (“C”>50% POC) |
| CN1CCC[C@H]1COc1nc2c(c(N3CCN(C(=O)/C=C/C(F)F)[C@@H](CC#N)C3)n1)CCN(c1cccc3cccc(Cl)c13)C2 [Example 13, 2-[(2S)-4-[7-(8-chloro-1-naphthyl)-2-[[(2S)-1-methylpyrrolidin-2-yl]methoxy]-6,8-dihydro-5H-pyrido[3,4-d]pyrimidin-4-yl]-1-[(E)-4,4-difluorobut-2-enoyl]piperazin-2-yl]acetonitrile] | C (“C”>50% POC) |
| C=C(COC)C(=O)N1CCN(c2nc(OC[C@@H]3CCCN3C)nc3c2CCN(c2cccc4cccc(Cl)c24)C3)C[C@@H]1CC#N [Example 14, 2-[(2S)-4-[7-(8-chloro-1-naphthyl)-2-[[(2S)-1-methylpyrrolidin-2-yl]methoxy]-6,8-dihydro-5H-pyrido[3,4-d]pyrimidin-4-yl]-1-[2-(methoxymethyl)prop-2-enoyl]piperazin-2-yl]acetonitrile] | A (“A”≤25% POC) |
| Cc1cccc(N2CCc3c(nc(OC[C@@H]4CCCN4C)nc3N3CCN(C(=O)/C=C/C(F)(F)F)[C@@H](CC#N)C3)C2)c1C [Example 15, 2-((S)-4-(7-(2,3-dimethylphenyl)-2-(((S)-1-methylpyrrolidin-2-yl)methoxy)-5,6,7,8-tetrahydropyrido[3,4-d]pyrimidin-4-yl)-1-((E)-4,4,4-trifluorobut-2-enoyl)piperazin-2-yl)acetonitrile] | C (“C”>50% POC) |
| C=C(C(=O)N1CCN(c2nc(OC[C@@H]3CCCN3C)nc3c2CCN(c2cccc(C)c2C)C3)C[C@@H]1CC#N)C(F)(F)F [Example 16, 2-((S)-4-(7-(2,3-dimethylphenyl)-2-(((S)-1-methylpyrrolidin-2-yl)methoxy)-5,6,7,8-tetrahydropyrido[3,4-d]pyrimidin-4-yl)-1-(2-(trifluoromethyl)acryloyl)piperazin-2-yl)acetonitrile] | A (“A”≤25% POC) |
| C=C(CO)C(=O)N1CCN(c2nc(OC[C@@H]3CCCN3C)nc3c2CCN(c2cccc(C)c2C)C3)C[C@@H]1CC#N [Example 17, 2-((S)-4-(7-(2,3-dimethylphenyl)-2-(((S)-1-methylpyrrolidin-2-yl)methoxy)-5,6,7,8-tetrahydropyrido[3,4-d]pyrimidin-4-yl)-1-(2-(hydroxymethyl)acryloyl)piperazin-2-yl)acetonitrile] | B (“B”>25% POC−≤50% POC) |
| COC/C=C/C(=O)N1CCN(c2nc(OC[C@@H]3CCCN3C)nc3c2CCN(c2cccc(C)c2C)C3)C[C@@H]1CC#N [Example 18, 2-((S)-4-(7-(2,3-dimethylphenyl)-2-(((S)-1-methylpyrrolidin-2-yl)methoxy)-5,6,7,8-tetrahydropyrido[3,4-d]pyrimidin-4-yl)-1-((E)-4-methoxybut-2-enoyl)piperazin-2-yl)acetonitrile] | C (“C”>50% POC) |
| CN1CCC[C@H]1COc1nc2c(c(N3CCN(C(=O)/C=C/C(F)(F)F)[C@@H](CC#N)C3)n1)CCN(c1cccc3cccc(Cl)c13)C2 [Example 19, 2-((S)-4-(7-(8-chloronaphthalen-1-yl)-2-(((S)-1-methylpyrrolidin-2-yl)methoxy)-5,6,7,8-tetrahydropyrido[3,4-d]pyrimidin-4-yl)-1-((E)-4,4,4-trifluorobut-2-enoyl)piperazin-2-yl)acetonitrile] | C (“C”>50% POC) |
| Cc1cccc2cccc(N3CCc4c(nc(OC[C@@H]5CCCN5C)nc4N4CCN(C(=O)/C=C/C(F)(F)F)[C@@H](CC#N)C4)C3)c12 [Example 20, 2-((S)-4-(7-(8-methylnaphthalen-1-yl)-2-(((S)-1-methylpyrrolidin-2-yl)methoxy)-5,6,7,8-tetrahydropyrido[3,4-d]pyrimidin-4-yl)-1-((E)-4,4,4-trifluorobut-2-enoyl)piperazin-2-yl)acetonitrile] | C (“C”>50% POC) |
